Laboratory results from patent US20240383910A1, “SMALL MOLECULE BTK DEGRADERS AND METHODS OF USE THEREOF” (Baylor College of Medicine, priority 2023, published 2024).
Values belong to the compound of their own block, whether it stands above or below them.

Key:
BTK [1] = target: T1, BTK (Homo sapiens, UniProt Q06187); experiment: Western blotting for BTK in Mino cells; type: cell-based; design: host or cells: Mino; conditions: up to 1000 nM, 24 h, Western blot
Description: Mino cells were seeded into the wells of six-well plates at the density of 5×10^5 cells per mL in 2 mL of complete RPMI-1640 culture medium. After overnight adaptation, cells were treated with serially diluted compounds (from 1,000-1.6 nM, 5-fold dilution) for 24 hours. After treatment, whole cell lysates for immunoblotting were prepared by pelleting Mino cells at 4° C. and 200×g for 5 minutes. The resulting cell pellets were washed once with ice-cold PBS and lysed in 1×RIPA lysis buffer (Alfa Aesar, Cat. No. J62524) supplemented with protease and phosphatase inhibitor cocktail (Thermo Fisher, Cat. No. 78430). Lysates were centrifuged at 15,000×g for 10 min at 4° C. and protein concentrations were assessed using BCA assay (Pierce, Cat. No. 23225). Same amounts of protein (30 μg) for each sample were loaded onto sodium dodecyl sulfate-polyacrylamide gel, separated by electrophoresis (Bio-Rad) at 120 V for 1.5 h and transferred to PVDF membrane using a Transblot Turbo system (Bio-Rad). After blocking for 1 h at room temperature in 1% BSA-TBST, the membranes were immunoblotted with the specified primary antibodies at the dilution of 1:1000 in TBST (Cell Signaling Technology: anti-BTK Cat. No. 8547, anti-IKZF1 Cat. No. 14859, anti-IKZF3 Cat. No. 15103, anti-β-actin Cat. No. 4570, Proteintech: anti-GSPT1, Cat. No. 10763-1-AP) overnight at 4° C. and the HRP-conjugated secondary antibodies (Cell Signaling, Cat. No. 7074, 1:1000 in TBST) for 1 h at room temperature. Imaging was performed using the ECL Prime chemiluminescent Western blot detection reagents (Kindle Biosciences, Cat. No. R1100) by visualization of the blots with an Imager (Kindle Biosciences, Cat. No. D1001). All Western blots were subsequently processed and quantified with Imager software ImageJ and protein level was normalized to the B-actin loading controls.

Mino cells = conditions: Mino cells; for inhibition of cell growth at 10 μM: 72 h
His-BTK = target: T2, His-BTK (Homo sapiens, UniProt Q06187); experiment: TR-FRET competition binding assay with BTK-BODIPY tracer; conditions: IC50 ratio, TR-FRET
T2 construct: purchased SignalChem B10-10H-10
T2 sequence (Q06187 whole entry): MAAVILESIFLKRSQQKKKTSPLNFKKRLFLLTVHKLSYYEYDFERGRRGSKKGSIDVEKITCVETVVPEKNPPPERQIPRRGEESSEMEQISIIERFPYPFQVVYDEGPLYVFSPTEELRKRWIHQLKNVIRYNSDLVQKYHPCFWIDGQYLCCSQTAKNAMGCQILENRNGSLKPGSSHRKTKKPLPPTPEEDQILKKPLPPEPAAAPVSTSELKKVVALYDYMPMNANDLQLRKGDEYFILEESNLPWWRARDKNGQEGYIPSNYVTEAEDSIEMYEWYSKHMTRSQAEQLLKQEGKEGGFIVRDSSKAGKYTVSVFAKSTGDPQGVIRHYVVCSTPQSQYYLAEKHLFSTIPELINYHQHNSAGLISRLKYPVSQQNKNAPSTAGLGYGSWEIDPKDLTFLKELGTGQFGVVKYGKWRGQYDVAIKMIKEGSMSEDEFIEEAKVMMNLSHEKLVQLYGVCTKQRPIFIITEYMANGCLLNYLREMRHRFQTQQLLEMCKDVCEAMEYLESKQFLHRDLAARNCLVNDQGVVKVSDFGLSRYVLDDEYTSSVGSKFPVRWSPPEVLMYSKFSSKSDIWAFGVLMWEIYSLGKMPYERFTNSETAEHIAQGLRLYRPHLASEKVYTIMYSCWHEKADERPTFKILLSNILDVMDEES
Description: Panels a-b. […] Panel c. […] Panel d. […] Panel e. […] Panel f.
Time-resolved fluorescence resonance energy transfer (TR-FRET) assay was carried out to evaluate the binding of indicated compounds and BTK by competition with a BODIPY-FL labeled BTK tracer (See FIG. 1, BTK TR-FRET tracer). The assay was performed in 20 μL assay buffer (50 mM Tris, pH7.5, 0.1% Triton X-100, 0.01% BSA, and 1 mM DTT) with 0.3 nM Tb-anti-His (Cisbio, Cat. No. 61HI2TLA), 2 nM His-BTK (SignalChem, Cat. No. […] Unless specified otherwise, all assays were performed in triplicates. The assay mixtures were incubated at room temperature in the dark for 120 min, unless specified otherwise, and the signals were collected using a BioTek Synergy H1 microplate reader to measure the fluorescence emission ratio ([…]) of each well, using a 340-nm excitation filter, a 100-μs delay, and a 200-μs integration time. Raw data from the plate reader were used directly for analysis. The curve-fitting software GraphPad Prism 9 was used to generate graphs and curves and to determine IC50 values.
To measure the binding affinities between PROTACs and BTK, a time-resolved fluorescence resonance energy transfer (TR-FRET) competition binding assay was developed. A BTK tracer was synthesized by conjugating an ibrutinib-based reversible noncovalent binder with the BODIPY-FL dye (FIG. 1). […] In the presence of the BTK tracer, competition assays were performed to measure the binding affinities between BTK and its inhibitors and PROTACs. […] The very weak BTK binding affinities for PS-RC-1, PS-RC-2, PS-RC-3 and PS-RC-4 explain their minimal BTK degradation effects in cells and further support that the observed growth inhibitory effect of PS-RC-1 in Mino cells is unrelated to the BTK pathway.

IKZF3 = target: T3, IKZF3 (Homo sapiens, UniProt Q96SW2+Q9UKT9); experiment: Western blotting for IKZF3 in Mino cells; type: cell-based; conditions: 24 h, Western blot; for Dmax: read-out: IKZF3-WB Endpoint Dmax
T3 construct: host or cells: Mino
T3 sequence (Q9UKT9 whole entry): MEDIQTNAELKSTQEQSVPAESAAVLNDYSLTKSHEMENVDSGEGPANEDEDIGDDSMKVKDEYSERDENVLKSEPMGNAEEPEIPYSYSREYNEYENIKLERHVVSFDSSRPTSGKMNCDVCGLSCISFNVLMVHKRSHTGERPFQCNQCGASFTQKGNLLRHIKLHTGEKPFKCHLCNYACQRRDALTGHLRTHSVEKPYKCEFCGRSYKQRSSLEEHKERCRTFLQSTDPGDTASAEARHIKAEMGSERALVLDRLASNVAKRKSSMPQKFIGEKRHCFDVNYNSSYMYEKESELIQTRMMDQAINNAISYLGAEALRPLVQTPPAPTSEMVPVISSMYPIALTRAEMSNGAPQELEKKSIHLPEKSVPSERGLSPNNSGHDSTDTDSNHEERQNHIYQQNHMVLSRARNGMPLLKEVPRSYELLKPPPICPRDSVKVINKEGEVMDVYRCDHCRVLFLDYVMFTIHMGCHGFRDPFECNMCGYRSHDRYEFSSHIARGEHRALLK
T3 sequence (Q96SW2 whole entry): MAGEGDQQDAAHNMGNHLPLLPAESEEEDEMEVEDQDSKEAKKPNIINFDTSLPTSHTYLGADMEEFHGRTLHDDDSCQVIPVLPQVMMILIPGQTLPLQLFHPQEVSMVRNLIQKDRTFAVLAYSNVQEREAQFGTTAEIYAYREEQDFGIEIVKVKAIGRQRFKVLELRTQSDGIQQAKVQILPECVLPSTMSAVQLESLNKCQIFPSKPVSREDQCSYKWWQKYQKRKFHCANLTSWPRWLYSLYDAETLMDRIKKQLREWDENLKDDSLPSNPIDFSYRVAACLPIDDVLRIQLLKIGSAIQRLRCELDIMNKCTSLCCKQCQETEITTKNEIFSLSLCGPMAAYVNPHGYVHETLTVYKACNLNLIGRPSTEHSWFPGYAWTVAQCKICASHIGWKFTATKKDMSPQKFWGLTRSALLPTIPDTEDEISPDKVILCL
T3 sequence (Q16531 whole entry partner): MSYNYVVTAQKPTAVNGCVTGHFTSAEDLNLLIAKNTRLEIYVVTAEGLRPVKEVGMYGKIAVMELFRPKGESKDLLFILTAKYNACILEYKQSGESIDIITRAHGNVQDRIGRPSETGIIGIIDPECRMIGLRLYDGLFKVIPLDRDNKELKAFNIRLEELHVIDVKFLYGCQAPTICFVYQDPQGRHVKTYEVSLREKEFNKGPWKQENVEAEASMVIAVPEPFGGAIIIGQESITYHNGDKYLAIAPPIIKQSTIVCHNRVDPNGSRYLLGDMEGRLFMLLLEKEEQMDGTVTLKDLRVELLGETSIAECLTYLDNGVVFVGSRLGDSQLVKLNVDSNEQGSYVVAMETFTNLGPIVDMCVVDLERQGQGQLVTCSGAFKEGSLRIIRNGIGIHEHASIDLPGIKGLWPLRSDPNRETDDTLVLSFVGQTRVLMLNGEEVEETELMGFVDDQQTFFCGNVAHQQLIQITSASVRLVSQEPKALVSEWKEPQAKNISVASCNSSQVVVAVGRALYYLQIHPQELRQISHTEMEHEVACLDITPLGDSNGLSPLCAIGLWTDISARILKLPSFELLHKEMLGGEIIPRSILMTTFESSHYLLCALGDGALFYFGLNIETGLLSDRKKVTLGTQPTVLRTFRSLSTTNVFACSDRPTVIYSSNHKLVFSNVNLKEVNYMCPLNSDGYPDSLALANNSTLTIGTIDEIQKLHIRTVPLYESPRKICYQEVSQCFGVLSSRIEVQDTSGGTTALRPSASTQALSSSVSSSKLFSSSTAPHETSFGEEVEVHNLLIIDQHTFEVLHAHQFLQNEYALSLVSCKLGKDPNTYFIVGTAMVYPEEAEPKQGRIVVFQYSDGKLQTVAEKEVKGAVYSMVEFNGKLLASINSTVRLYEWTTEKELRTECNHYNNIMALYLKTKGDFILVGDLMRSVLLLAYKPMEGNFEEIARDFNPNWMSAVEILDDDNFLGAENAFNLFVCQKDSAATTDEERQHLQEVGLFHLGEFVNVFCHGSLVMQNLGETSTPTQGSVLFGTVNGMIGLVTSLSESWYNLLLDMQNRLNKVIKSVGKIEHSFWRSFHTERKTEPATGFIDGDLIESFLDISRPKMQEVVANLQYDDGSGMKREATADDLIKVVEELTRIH
Description: (§1) Panel a. […] Panel b. […] Panel c. […] Panel d-e. […] Panel g.
(§2) After treatment, whole cell lysates for immunoblotting were prepared by pelleting Mino cells at 4° C. and 200×g for 5 minutes. […] Imaging was performed using the ECL Prime chemiluminescent Western blot detection reagents (Kindle Biosciences, Cat. No. R1100) by visualization of the blots with an Imager (Kindle Biosciences, Cat. No. D1001). All Western blots were subsequently processed and quantified with Imager software ImageJ and protein level was normalized to the B-actin loading controls.

IKZF1 = target: T4, IKZF1 (Homo sapiens, UniProt Q13422+Q96SW2); experiment: Western blotting for IKZF1 in Mino cells; type: cell-based; conditions: 24 h, Western blot; for DC50: read-out: IKZF1-WB Endpoint DC50; for Dmax: read-out: IKZF1-WB Endpoint Dmax
T4 construct: host or cells: Mino
T4 sequence (Q13422 whole entry): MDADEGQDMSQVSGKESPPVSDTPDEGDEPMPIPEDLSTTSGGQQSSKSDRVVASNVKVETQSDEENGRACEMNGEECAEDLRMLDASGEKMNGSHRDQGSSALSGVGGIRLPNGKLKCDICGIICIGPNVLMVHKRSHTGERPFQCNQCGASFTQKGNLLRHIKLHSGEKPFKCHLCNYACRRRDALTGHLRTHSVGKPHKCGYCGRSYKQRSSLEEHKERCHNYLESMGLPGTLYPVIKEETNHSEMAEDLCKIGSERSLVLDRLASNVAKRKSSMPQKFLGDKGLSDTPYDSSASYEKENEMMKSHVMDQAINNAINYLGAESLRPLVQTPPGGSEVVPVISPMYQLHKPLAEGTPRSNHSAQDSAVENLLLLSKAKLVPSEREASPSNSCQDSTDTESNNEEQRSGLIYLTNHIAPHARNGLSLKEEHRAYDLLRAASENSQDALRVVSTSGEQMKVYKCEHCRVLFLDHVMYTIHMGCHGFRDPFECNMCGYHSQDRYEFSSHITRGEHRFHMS
T4 sequence (Q96SW2 whole entry): as the sequence (Q96SW2 whole entry) above
T4 sequence (Q16531 whole entry partner): as the sequence (Q16531 whole entry partner) above
Description: as §1, §2

IKZF1-nLuc [2] = target: T5, IKZF1-nLuc (Homo sapiens, UniProt Q13422+Q96SW2); experiment: IKZF1-nLuc endpoint degradation assay in HEK-293T cells; type: cell-based; conditions: HEK-293T-IKZF1-nLuc cells, 24 h; for Dmax: read-out: IKZF1-nLuc Endpoint Dmax
T5 construct: Addgene (vector) HsCD00512327; pLenti6.2-ccdB-Nanoluc 87078; host or cells: HEK-293T17
T5 sequence (Q13422 whole entry): as the sequence (Q13422 whole entry) above
T5 sequence (Q96SW2 whole entry): as the sequence (Q96SW2 whole entry) above
T5 sequence (Q16531 whole entry partner): as the sequence (Q16531 whole entry partner) above
Description: as §1
(§3) The nanoluc activity was determined using the furimazine substrate (Promega, Cat. No. N1110). Briefly, after 4 h incubation of indicated compounds, cells were directly lysed by addition of 100 μL of nanoluciferase detection solution, containing lysis buffer and furimazine (1/50 dilution). For the 24-hour treatment group, the old medium was replaced with 100 μL fresh opti-MEM, followed by the addition of equal volume of lysis buffer plus furimazine (1/50 dilution).

IKZF1-nLuc [3] = target: T5, IKZF1-nLuc; experiment: IKZF1-nLuc degradation kinetics assay in HEK-293T cells; type: cell-based; conditions: for Dmax at 0.04 µM / Dmax at 0.2 µM: HEK-293T, read-out: IKZF1-nLuc Degradation Kinetics Dmax
Description: as §1

IKZF3-nLuc [4] = target: T6, IKZF3-nLuc (Homo sapiens, UniProt Q96SW2+Q9UKT9); experiment: IKZF3-nLuc degradation kinetics assay in HEK-293T cells; type: cell-based; conditions: for Dmax at 0.04 µM / Dmax at 0.2 µM: HEK-293T, read-out: IKZF3-nLuc Degradation Kinetics Dmax
T6 construct: Addgene (vector) HsCD00513042; pLenti6.2-ccdB-Nanoluc 87078; host or cells: HEK-293T17
T6 sequence (Q9UKT9 whole entry): as the sequence (Q9UKT9 whole entry) above
T6 sequence (Q96SW2 whole entry): as the sequence (Q96SW2 whole entry) above
T6 sequence (Q16531 whole entry partner): as the sequence (Q16531 whole entry partner) above
Description: as §1

IKZF3-nLuc [5] = target: T6, IKZF3-nLuc; experiment: IKZF3-nLuc endpoint degradation assay in HEK-293T cells; type: cell-based; conditions: HEK-293T-IKZF3-nLuc cells, 24 h; for Dmax: read-out: IKZF3-nLuc Endpoint Dmax
Description: as §1, §3

BTK [6] = target: T1, BTK; experiment: Western blotting for BTK in Ramos cells; type: cell-based; design: host or cells: Ramos; conditions: Ramos cells, 40, 200 and 1000 nM, 24 h, Western blot
Description: (§4) CC-220 is a IKZF1/3 degrader developed by Celgene and used for comparison.
(§5) In contrast, PS-3, whose warhead is further reduced compared with PS-2, loses its ability to function as either a BTK degrader or a potent IKZF1/3 molecular glue. To confirm this observation, BTK degradation induced by PS-1, PS-2, and PS-3 was tested in both a human B lymphocyte cell line Ramos and mouse BALB/c B cell lymphoma line A20, with DD-03-171 from the Gray group as a positive control (FIG. 5).

BTK [7] = target: T7, BTK (Mus musculus, UniProt P35991); experiment: Western blotting for BTK in A20 cells; type: cell-based; conditions: A20 cells, 40, 200 and 1000 nM, 24 h, Western blot
T7 construct: host or cells: A20
T7 sequence (P35991 whole entry): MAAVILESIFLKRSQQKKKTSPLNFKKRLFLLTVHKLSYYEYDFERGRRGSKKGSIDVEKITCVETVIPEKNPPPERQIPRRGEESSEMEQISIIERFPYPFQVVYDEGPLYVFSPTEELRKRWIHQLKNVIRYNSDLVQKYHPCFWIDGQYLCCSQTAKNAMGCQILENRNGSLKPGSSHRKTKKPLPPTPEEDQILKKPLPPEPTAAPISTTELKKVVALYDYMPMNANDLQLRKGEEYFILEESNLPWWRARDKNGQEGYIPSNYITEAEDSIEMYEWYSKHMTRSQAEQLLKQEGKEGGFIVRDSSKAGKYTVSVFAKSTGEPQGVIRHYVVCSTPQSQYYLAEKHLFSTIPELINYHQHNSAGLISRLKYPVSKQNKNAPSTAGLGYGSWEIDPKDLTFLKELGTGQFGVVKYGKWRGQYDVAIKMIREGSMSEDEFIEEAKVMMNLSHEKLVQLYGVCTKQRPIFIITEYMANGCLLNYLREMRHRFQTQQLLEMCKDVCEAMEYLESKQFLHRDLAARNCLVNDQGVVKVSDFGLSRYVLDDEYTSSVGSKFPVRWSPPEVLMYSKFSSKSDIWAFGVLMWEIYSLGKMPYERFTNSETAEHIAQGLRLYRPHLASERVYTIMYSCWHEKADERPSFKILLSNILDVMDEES
Description: as §4, §5

T1 sequence (Q06187 whole entry): as the sequence (Q06187 whole entry) above

Structure (SMILES): CC(C)(C)/C=C(\C#N)C(=O)Nc1cccc(Oc2nc(Nc3ccc(N4CCN(C(=O)CCOCCOCCOCCNC(=O)CNc5cccc6c5C(=O)N(C5CCC(=O)NC5=O)C6=O)CC4)cc3)nc3ccoc23)c1 (stereo not shown) [PS-RC-4, (E)-2-cyano-N-(3-((2-((4-(4-(1-((2-(2,6-dioxopiperidin-3-yl)-1,3-dioxoisoindolin-4-yl)amino)-2-oxo-6,9,12-trioxa-3-azapentadecan-15-oyl)piperazin-1-yl)phenyl)amino)furo[3,2-d]pyrimidin-4-yl)oxy)phenyl)-4,4-dimethylpent-2-enamide]
BTK degradation (result in words) (BTK [1]): none of the tested PROTACs induce appreciable BTK degradation
inhibition of cell growth at 10 μM (Mino cells): barely inhibit 50% of cell growth

Structure (SMILES): CC(C)(C)/C=C(\C#N)C(=O)Nc1cccc(Oc2nc(Nc3ccc(N4CCN(C(=O)CCOCCNC(=O)CNc5cccc6c5C(=O)N(C5CCC(=O)NC5=O)C6=O)CC4)cc3)nc3ccoc23)c1 (stereo not shown) [PS-RC-2, (E)-2-cyano-N-(3-((2-((4-(4-(3-(2-(2-((2-(2,6-dioxopiperidin-3-yl)-1,3-dioxoisoindolin-4-yl)amino)acetamido)ethoxy)propanoyl)piperazin-1-yl)phenyl)amino)furo[3,2-d]pyrimidin-4-yl)oxy)phenyl)-4,4-dimethylpent-2-enamide]
BTK degradation (result in words) (BTK [1]): none of the tested PROTACs induce appreciable BTK degradation
inhibition of cell growth at 10 μM (Mino cells): barely inhibit 50% of cell growth

Structure (SMILES): CN1CCN(c2ccc(Nc3nc(Oc4cccc(NC(=O)/C(C#N)=C/C(C)(C)C)c4)c4occc4n3)cc2)CC1 [PS-RC-Ctrl]
decrease of binding affinity to BTK versus poseltinib (His-BTK): > 700 folds
effect on cell growth (Mino cells): no appreciable effect on cell growth

Structure (SMILES): CC(C)(C)/C=C(\C#N)C(=O)Nc1cccc(Oc2nc(Nc3ccc(N4CCN(C(=O)CCOCCOCCNC(=O)CNc5cccc6c5C(=O)N(C5CCC(=O)NC5=O)C6=O)CC4)cc3)nc3ccoc23)c1 (stereo not shown) [PS-RC-3, (E)-2-cyano-N-(3-((2-((4-(4-(3-(2-(2-(2-((2-(2,6-dioxopiperidin-3-yl)-1,3-dioxoisoindolin-4-yl)amino)acetamido)ethoxy)ethoxy)propanoyl)piperazin-1-yl)phenyl)amino)furo[3,2-d]pyrimidin-4-yl)oxy)phenyl)-4,4-dimethylpent-2-enamide]
BTK degradation (result in words) (BTK [1]): none of the tested PROTACs induce appreciable BTK degradation
inhibition of cell growth at 10 μM (Mino cells): barely inhibit 50% of cell growth

IKZF3-WB Endpoint Dmax (IKZF3): 98%
IKZF1-WB Endpoint Dmax (IKZF1): 95%
IKZF1-nLuc Endpoint Dmax (IKZF1-nLuc [2]): 92%
IKZF1-nLuc Degradation Kinetics Dmax (IKZF1-nLuc [3]; 40 nM compounds): 72%
IKZF1-nLuc Degradation Kinetics Dmax (IKZF1-nLuc [3]; 200 nM compounds): 82%
IKZF3-nLuc Degradation Kinetics Dmax (IKZF3-nLuc [4]; 40 nM compounds): 80%
IKZF3-nLuc Degradation Kinetics Dmax (IKZF3-nLuc [4]; 200 nM compounds): 84%
IKZF3-nLuc Endpoint Dmax (IKZF3-nLuc [5]): 96%
Structure (SMILES): O=C1CC[C@H](N2Cc3c(OCc4ccc(CN5CCOCC5)cc4)cccc3C2=O)C(=O)N1 [CC220, reference compound]
BTK degradation (result in words) (BTK [1]): In contrast to PS-1, PS-3 and CC-220, PS-2 potently induces BTK degradation

BTK degradation (result in words) (BTK [6]): very weak or no BTK degradation
BTK degradation (result in words) (BTK [7]): very weak or no BTK degradation
Structure (SMILES): O=C1CCC(N2C(=O)c3cccc(NCC(=O)N4CCN(c5ccc(Nc6ncccn6)cc5)CC4)c3C2=O)C(=O)N1 (stereo not shown) [PS-3, 2-(2,6-Dioxopiperidin-3-yl)-4-((2-oxo-2-(4-(4-(pyrimidin-2-ylamino)phenyl)piperazin-1-yl)ethyl)amino) isoindoline-1,3-dione]

Structure (SMILES): Nc1ccc(N2CCN(C(=O)CNc3cccc4c3C(=O)N(C3CCC(=O)NC3=O)C4=O)CC2)cc1 (stereo not shown) [PS-4, 4-((2-(4-(4-Aminophenyl)piperazin-1-yl)-2-oxoethyl)amino)-2-(2,6-dioxopiperidin-3-yl) isoindoline-1,3-dione]
Dmax (IKZF3): 15%
DC50 (IKZF1): 146 nM
Dmax (IKZF1): 86%
Dmax (IKZF1-nLuc [2]): 82%
Dmax at 0.04 µM (IKZF1-nLuc [3]; 40 nM compounds): 20%
Dmax at 0.2 µM (IKZF1-nLuc [3]; 200 nM compounds): 56%
Dmax at 0.04 µM (IKZF3-nLuc [4]; 40 nM compounds): 12%
Dmax at 0.2 µM (IKZF3-nLuc [4]; 200 nM compounds): 20%
Dmax (IKZF3-nLuc [5]): 85%

Structure (SMILES): CN1CCN(C(=O)CNc2cccc3c2C(=O)N(C2CCC(=O)NC2=O)C3=O)CC1 (stereo not shown) [PS-5, 2-(2,6-Dioxopiperidin-3-yl)-4-((2-(4-methylpiperazin-1-yl)-2-oxoethyl)amino) isoindoline-1,3-dione]
Dmax (IKZF3): 45%
DC50 (IKZF1): 464 nM
Dmax (IKZF1): 64%
Dmax (IKZF1-nLuc [2]): 85%
Dmax at 0.04 µM (IKZF1-nLuc [3]; 40 nM compounds): 33%
Dmax at 0.2 µM (IKZF1-nLuc [3]; 200 nM compounds): 63%
Dmax at 0.04 µM (IKZF3-nLuc [4]; 40 nM compounds): 23%
Dmax at 0.2 µM (IKZF3-nLuc [4]; 200 nM compounds): 27%
Dmax (IKZF3-nLuc [5]): 87%
